Assay results published in PMC9228592, “Dichloroacetyl Amides of 3,5-Bis(benzylidene)-4-piperidones Displaying Greater Toxicity to Neoplasms than to Non-Malignant Cells” (Medicines, 2022).

Columns and labels:
Type in all cases: cell-based, human
[1] = system: HSC-2 squamous cell carcinoma cells; assay: Cytotoxicity (MTT, 48 h) against HSC-2 cells; conditions: for SI (HSC-2): average CC50 towards HGF, HPLF, HPC divided by CC50 against HSC-2
Source text: (§1) The target cells used in our study were human oral squamous cell carcinoma cell lines Ca9-22 (purchased from RIKEN Cell Bank, Tukuba, RCB-1976), HSC-2 (RCB1945), HSC-3 (RCB1975), HSC-4 (RCB1902), and three human normal oral cells, gingival fibroblast (HGF), periodontal ligament fibroblast (HPLF), and pulp cells (HPC) [established from the first premolar extracted tooth in the lower jaw (because of dysfunctional position or orthodontic treatment) and periodontal tissues of a child, according to the guideline of the Institutional Board of Meikai University Ethics Committee (No. A0808)], after obtaining informed consent from the patients. These cells were incubated for 48 h with the indicated concentrations of test samples or reference compounds sodium dichloroacetate (purchased from Sigma-Aldrich Chemical Company, Saint Louis, MO, USA), 5-fluorouracil (5-FU) from Kyowa (Tokyo, Japan), and doxorubicin (DXR) (St. Louis, MO, USA) and vehicle (DMSO) (0.008, 0.016, 0.031, 0.063, 0.125, 0.25, 0.5, and 1%) in Dulbecco’s Modified Eagle Medium (DMEM) media, which was supplemented with 10% heat-inactivated fetal bovine serum. Cell viability was determined by the MTT method. Cytotoxicity caused by the vehicle (DMSO) was subtracted.
(§2) SI was calculated by dividing the average CC50 value (concentration of the compound to kill 50% of the cells) of the compound towards HGF, HPLF, and HPC cells by the CC50 value of the compound against a specific neoplastic cell line.

[2] = system: Ca9-22 squamous cell carcinoma cells; assay: Cytotoxicity (MTT, 48 h) against Ca9-22 cells; conditions: for CC50: 48 h, MTT, mean ± S.D. of triplicate; for SI (Ca9-22): average CC50 towards HGF, HPLF, HPC divided by CC50 against Ca9-22
Source text: as §1, §2

[3] = system: pulp cells (HPC); assay: Cytotoxicity (MTT, 48 h) against HPC non-malignant cells; conditions: mean ± S.D. of triplicate
Source text: as §1

[4] = system: gingival fibroblast (HGF); assay: Cytotoxicity (MTT, 48 h) against HGF non-malignant cells; conditions: mean ± S.D. of triplicate
Source text: as §1

[5] = system: HGF, HPLF, and HPC cells; assay: Average cytotoxicity over the three non-malignant cells
Source text: as §1

[6] = system: HSC-4 squamous cell carcinoma cells; assay: Cytotoxicity (MTT, 48 h) against HSC-4 cells; conditions: for CC50: 48 h, MTT, mean ± S.D. of triplicate; for SI (HSC-4): average CC50 towards HGF, HPLF, HPC divided by CC50 against HSC-4
Source text: as §1, §2

[7] = system: HSC-3 squamous cell carcinoma cells; assay: Cytotoxicity (MTT, 48 h) against HSC-3 cells; conditions: for CC50: 48 h, MTT, mean ± S.D. of triplicate; for SI (HSC-3): average CC50 towards HGF, HPLF, HPC divided by CC50 against HSC-3
Source text: as §1, §2

[8] = system: periodontal ligament fibroblast (HPLF); assay: Cytotoxicity (MTT, 48 h) against HPLF non-malignant cells; conditions: mean ± S.D. of triplicate
Source text: as §1

[9] = system: Ca9-22, HSC-2, HSC-3, and HSC-4 cells; assay: Average cytotoxicity, selectivity and PSE over the four carcinoma lines; conditions: for Average SI: average of SI over Ca9-22, HSC-2, HSC-3, HSC-4
Source text: as §1, §2
PSE reflects both the potencies and differences in cytotoxicity to neoplasms and non-malignant cells. This value was the product of the reciprocal of the average CC50 value of the compounds towards Ca9-22, HSC-2, HSC-3, and HSC-4 cells and the average SI value × 100.

[10] = system: Ca9-22 cells; assay: Cell cycle assay in Ca9-22 cells; conditions: 20 h
Experimental: The evaluation of varying quantities of 1d,e,k on the cell cycle in Ca9-22 cells was undertaken by a literature method. In brief, Ca9-22 cells were treated for 20 h without (control) or with the indicated concentrations of the test samples. To neglect the cytotoxicity effect of DMSO, all samples contained 0.1% DMSO. Cells (approximately 10^6 cells) were harvested, fixed for 1 h on ice with 1% paraformaldehyde, washed twice by phosphate-buffered saline, treated for 30 min at 37 °C with 0.2 mg/mL RNase A (ribonuclease A), stained for 15 min at room temperature with 0.01% propidium iodide in the presence of 0.01% NP-40 (nonyl phenoxypolyethoxyethanol) to prevent cell aggregation, filtered through Falcon® cell strainers (pore size: 40 µm) (Corning, NY, USA), subjected to cell sorting (SH800 Series; SONY Imaging Products and Solutions Inc., Kanagawa, Japan), and then analyzed with Cell Sorter Software version 2.1.2. (SONY Imaging Products and Solutions Inc., Kanagawa, Japan).

[11] = 48 h, MTT, mean ± S.D. of triplicate
[12] = average over Ca9-22, HSC-2, HSC-3, HSC-4

Compound: O=C1C(=Cc2ccccc2)CN(C(=O)C(Cl)Cl)CC1=Cc1ccccc1 [Compound 1a]
- CC50 [1, 11]: 0.67 ± 0.06 µM
- SI (HSC-2) [1]: 6.05
- CC50 [2]: 0.42 ± 0.04 µM
- SI (Ca9-22) [2]: 9.64
- CC50 [3]: 2.88 ± 0.08 µM
- CC50 [4]: 5.9 ± 0.1 µM
- CC50 [5]: 4.05 µM
- CC50 [6]: 0.59 ± 0.12 µM
- SI (HSC-4) [6]: 6.86
- CC50 [7]: 1.29 ± 0.07 µM
- SI (HSC-3) [7]: 3.14
- CC50 [8]: 3.37 ± 0.42 µM
- Average SI [9]: 6.42
- CC50 [9, 12]: 0.74 µM

Compound: O=C1C(=Cc2ccc(F)cc2)CN(C(=O)C(Cl)Cl)CC1=Cc1ccc(F)cc1 [Compound 1b]
- CC50 [1, 11]: 0.25 ± 0.02 µM
- SI (HSC-2) [1]: 8.72
- CC50 [2]: 0.11 ± 0.01 µM
- SI (Ca9-22) [2]: 19.8
- CC50 [3]: 1.3 ± 0.16 µM
- CC50 [4]: 2.97 ± 0.46 µM
- CC50 [5]: 2.18 µM
- CC50 [6]: 0.33 ± 0.07 µM
- SI (HSC-4) [6]: 6.61
- CC50 [7]: 0.44 ± 0.02 µM
- SI (HSC-3) [7]: 4.96
- CC50 [8]: 2.26 ± 0.11 µM
- Average SI [9]: 10.0
- CC50 [9, 12]: 0.28 µM

Compound: O=C1C(=Cc2ccc(F)c(F)c2)CN(C(=O)C(Cl)Cl)CC1=Cc1ccc(F)c(F)c1 [Compound 1c]
- CC50 [1, 11]: 0.2 ± 0.02 µM
- SI (HSC-2) [1]: 9.00
- CC50 [2]: 0.09 ± 0.02 µM
- SI (Ca9-22) [2]: 20.0
- CC50 [3]: 1.28 ± 0.37 µM
- CC50 [4]: 2.21 ± 0.11 µM
- CC50 [5]: 1.8 µM
- CC50 [6]: 0.2 ± 0.01 µM
- SI (HSC-4) [6]: 9.00
- CC50 [7]: 0.35 ± 0.02 µM
- SI (HSC-3) [7]: 5.14
- CC50 [8]: 1.91 ± 0.08 µM
- Average SI [9]: 10.8
- CC50 [9, 12]: 0.21 µM

Compound: O=C1C(=Cc2ccc(Cl)c(Cl)c2)CN(C(=O)C(Cl)Cl)CC1=Cc1ccc(Cl)c(Cl)c1 [Compound 1e]
- CC50 [1, 11]: 0.08 ± 0.01 µM
- HSC-2 CC50 [1, 11]: double-digit nanomolar
- SI (HSC-2) [1]: 9.75
- subG1 population ([10]; 0.8 µM): slight increase
- G2M cell population ([10]; 0.8 µM, p < 0.05): most prominent increase
- effect on the cell cycle ([10]; 0.1, 0.2, and 0.4 µM): little effects
- CC50 [2]: 0.04 µM
- SI (Ca9-22) [2]: 19.5
- CC50 [3]: 0.49 µM
- CC50 [4]: 1.04 ± 0.13 µM
- CC50 [5]: 0.78 µM
- CC50 [6]: 0.23 ± 0.01 µM
- SI (HSC-4) [6]: 3.39
- CC50 [7]: 0.13 ± 0.06 µM
- SI (HSC-3) [7]: 6.00
- CC50 [8]: 0.82 ± 0.1 µM
- Average SI [9]: 9.66
- CC50 [9, 12]: 0.12 µM

Compound: COc1ccc(/C=C2\CN(C(=O)C(Cl)Cl)C/C(=C\c3ccc(OC)cc3)C2=O)cc1 [Compound 1f]
- CC50 [1, 11]: 0.52 ± 0.07 µM
- SI (HSC-2) [1]: 11.5
- CC50 [2]: 0.39 ± 0.02 µM
- SI (Ca9-22) [2]: 15.4
- CC50 [3]: 3.62 ± 0.07 µM
- CC50 [4]: 9.03 ± 0.76 µM
- CC50 [5]: 5.99 µM
- CC50 [6]: 1.26 ± 0.27 µM
- SI (HSC-4) [6]: 4.75
- CC50 [7]: 1 ± 0.16 µM
- SI (HSC-3) [7]: 5.99
- CC50 [8]: 5.33 ± 0.32 µM
- Average SI [9]: 9.41
- CC50 [9, 12]: 0.79 µM

Compound: COc1cc(/C=C2\CN(C(=O)C(Cl)Cl)C/C(=C\c3cc(OC)c(OC)c(OC)c3)C2=O)cc(OC)c1OC [Compound 1h]
- CC50 [1, 11]: 0.14 ± 0.01 µM
- CC50 [2]: 0.72 ± 0.15 µM
- SI (Ca9-22) [2]: 11.9
- CC50 [3]: 4 ± 0.6 µM
- CC50 [4]: 4.7 ± 1.6 µM
- CC50 [5]: 8.58 µM
- CC50 [6]: 0.99 ± 0.39 µM
- SI (HSC-4) [6]: 8.67
- CC50 [7]: 1.37 ± 0.22 µM
- SI (HSC-3) [7]: 6.26
- CC50 [8]: 17 ± 5.1 µM
- Average SI [9]: 22.0
- CC50 [9, 12]: 0.8 µM

Compound: O=C1/C(=C/c2ccc3c(c2)OCO3)CN(C(=O)C(Cl)Cl)C/C1=C\c1ccc2c(c1)OCO2 [Compound 1i]
- CC50 [1, 11]: 0.36 ± 0.01 µM
- SI (HSC-2) [1]: 11.9
- CC50 [2]: 0.17 ± 0.06 µM
- SI (Ca9-22) [2]: 25.1
- CC50 [3]: 2.78 ± 0.14 µM
- CC50 [4]: 5.67 ± 0.31 µM
- CC50 [5]: 4.27 µM
- CC50 [6]: 0.65 ± 0.17 µM
- SI (HSC-4) [6]: 6.57
- CC50 [7]: 0.74 ± 0.13 µM
- SI (HSC-3) [7]: 5.77
- CC50 [8]: 4.37 ± 0.85 µM
- Average SI [9]: 12.3
- CC50 [9, 12]: 0.48 µM

Compound: Cc1ccc(C=C2CN(C(=O)C(Cl)Cl)CC(=Cc3ccc(C)cc3)C2=O)cc1 [Compound 1j]
- CC50 [1, 11]: 0.26 ± 0.01 µM
- SI (HSC-2) [1]: 18.5
- CC50 [2]: 0.15 ± 0.03 µM
- SI (Ca9-22) [2]: 32.1
- CC50 [3]: 3.93 ± 0.65 µM
- CC50 [4]: 5.53 ± 0.31 µM
- CC50 [5]: 4.82 µM
- CC50 [6]: 0.45 ± 0.04 µM
- SI (HSC-4) [6]: 10.7
- CC50 [7]: 0.46 ± 0.04 µM
- SI (HSC-3) [7]: 10.5
- CC50 [8]: 5 ± 0.1 µM
- Average SI [9]: 18.0
- CC50 [9, 12]: 0.33 µM

Compound: CN(C)c1ccc(C=C2CN(C(=O)C(Cl)Cl)CC(=Cc3ccc(N(C)C)cc3)C2=O)cc1 [Compound 1l]
- CC50 [1, 11]: 14.9 ± 4.4 µM
- SI (HSC-2) [1]: 9.40
- CC50 [2]: 13.6 ± 2.7 µM
- SI (Ca9-22) [2]: 10.3
- CC50 [3]: 122 ± 69 µM
- CC50 [4]: 111 ± 27 µM
- CC50 [5]: 140 µM
- CC50 Average (non-malignant cells) [5]: very low toxicity
- CC50 [6]: 19.6 ± 6.3 µM
- SI (HSC-4) [6]: 7.14
- CC50 [7]: 45.5 ± 7.6 µM
- SI (HSC-3) [7]: 3.08
- CC50 [8]: 188 ± 21 µM
- Average SI [9]: 7.48
- CC50 [9, 12]: 23.4 µM

Compound: O=C([O-])C(Cl)Cl.[Na+] [SDA, sodium dichloroacetate, reference compound]
- CC50 [1, 11]: > 200 µM
- CC50 [2]: > 200 µM
- CC50 [3]: > 200 µM
- CC50 [4]: > 200 µM
- CC50 [5]: > 200 µM
- CC50 [6]: > 200 µM
- CC50 [7]: > 200 µM
- CC50 [8]: > 200 µM
- Average CC50 [9, 12]: little or no efficacy
- CC50 [9, 12]: > 200 µM
